# Source: ChEMBL document CHEMBL1201862, “PubChem BioAssay data set” (2004)
# Values joined by “and” are separate entries in the source; they are usually repeats but may differ in a detail not shown here. Equal values may be shown once.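 Following 48 hours of exposure in 96-well plates, responses at five concentrations were used to interpolate endpoints linearly. GI50 = concentration required for 50% inhibition of growth.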 Active and inactive are the calls of the source. Rule as the data show it: active = GI50 up to about 1.1 µM and inactive = higher.
# How the values were obtained:
# Test in all cases: NCI tumour cell line growth inhibition, 48 h
# [1] = tested on: SW-620
# [2] = tested on: OVCAR-4
# [3] = tested on: 786-0
# [4] = tested on: HOP-62
# [5] = tested on: SK-MEL-2
# [6] = tested on: HCT-15
# [7] = tested on: TK-10
# [8] = tested on: SNB-19
# [9] = tested on: MDA-MB-435
# [10] = tested on: SF-539
# [11] = tested on: Malme-3M
# [12] = tested on: KM12
# [13] = tested on: SNB-75
# [14] = tested on: OVCAR-3
# [15] = tested on: A549
# [16] = tested on: ACHN
# [17] = tested on: IGROV-1
# [18] = tested on: MDA-N
# [19] = tested on: COLO 205
# [20] = tested on: PC-3
# [21] = tested on: MDA-MB-231
# [22] = tested on: UO-31
# [23] = tested on: NCI-H23
# [24] = tested on: DU-145
# [25] = tested on: HCC 2998
# [26] = tested on: BT-549
# [27] = tested on: CAKI-1
# [28] = tested on: CCRF-CEM
# [29] = tested on: HL-60
# [30] = tested on: NCI-H226
# [31] = tested on: SR
# [32] = tested on: UACC-257
# [33] = tested on: A498
# [34] = tested on: MOLT-4
# [35] = tested on: NCI-H460
# [36] = tested on: SK-MEL-28
# [37] = tested on: RXF 393
# [38] = tested on: T47D
# [39] = tested on: Hs-578T
# [40] = tested on: OVCAR-5
# [41] = tested on: M14
# [42] = tested on: UACC-62
# [43] = tested on: OVCAR-8
# [44] = tested on: HOP-92
# [45] = tested on: SF-268
# [46] = tested on: HT-29
# [47] = tested on: SK-MEL-5
# [48] = tested on: HCT-116
# [49] = tested on: SN12C
# [50] = tested on: RPMI-8226
# [51] = tested on: EKVX
# [52] = tested on: MCF7
# [53] = tested on: U-251
# [54] = tested on: K562
# [55] = tested on: NCI/ADR-RES
# [56] = tested on: NCI-H522
# [57] = tested on: SK-OV-3
# [58] = tested on: SF-295
# [59] = tested on: LOX IMVI
smiles,measurement,setting,value
NC(=S)N/N=C/c1ncccc1N [TRIAPINE],GI50,[1],3.72 µM (inactive)
same,GI50,[2],7.48 µM (inactive)
same,GI50,[3],0.314 µM (active)
same,GI50,[4],1.19 µM (inactive)
same,GI50,[5],> 10 µM (inactive)
same,GI50,[6],1.97 µM
same,GI50,[7],> 10 µM (inactive)
same,GI50,[8],9.89 µM (inactive)
same,GI50,[9],1.71 µM (inactive)
same,GI50,[10],0.239 µM (active)
same,GI50,[11],1.87 µM (inactive)
same,GI50,[12],4.59 µM (inactive)
same,GI50,[13],0.773 µM (active)
same,GI50,[14],2.25 µM (inactive)
same,GI50,[15],2.02 µM (inactive)
same,GI50,[16],0.282 µM (active)
same,GI50,[17],> 10 µM (inactive)
same,GI50,[18],2.65 µM (inactive)
same,GI50,[19],2.23 µM (inactive)
same,GI50,[20],1.57 µM (inactive)
same,GI50,[21],5.28 µM (inactive)
same,GI50,[22],0.37 µM (active)
same,GI50,[23],0.332 µM (active)
same,GI50,[24],0.681 µM (active)
same,GI50,[25],1.62 µM (inactive)
same,GI50,[26],2.37 µM (inactive)
same,GI50,[27],0.521 µM (active)
same,GI50,[28],466 nM (active)
same,GI50,[29],1.03 µM (active)
same,GI50,[30],2.75 µM (inactive)
same,GI50,[31],403 nM (active)
same,GI50,[32],> 6.65 µM (inactive)
same,GI50,[33],0.615 µM (active)
same,GI50,[34],0.438 µM (active)
same,GI50,[35],1.68 µM (inactive)
same,GI50,[36],> 10 µM (inactive)
same,GI50,[37],1.07 µM (active)
same,GI50,[38],4.39 µM (inactive)
same,GI50,[39],> 10 µM (inactive)
same,GI50,[40],5.08 µM (inactive)
same,GI50,[41],0.583 µM (active)
same,GI50,[42],0.546 µM (active)
same,GI50,[43],0.568 µM (active)
same,GI50,[44],0.553 µM (active)
same,GI50,[45],0.925 µM (active)
same,GI50,[46],1.93 µM (inactive)
same,GI50,[47],968 nM (active)
same,GI50,[48],0.986 µM (active)
same,GI50,[49],1.41 µM (inactive)
same,GI50,[50],0.792 µM (active)
same,GI50,[51],7.55 µM (inactive)
same,GI50,[52],0.452 µM (active)
same,GI50,[53],1.04 µM (active)
same,GI50,[54],3.13 µM (inactive)
same,GI50,[55],2.04 µM (inactive)
same,GI50,[56],2.03 µM (inactive)
same,GI50,[57],> 8.55 µM (inactive)
same,GI50,[58],1.21 µM (inactive)
same,GI50,[59],679 nM (active)
NCCOCC(N)C(=O)O (configuration not stated),GI50,[1],> 100 µM (inactive)
same,GI50,[2],> 100 µM (inactive)
same,GI50,[3],> 100 µM (inactive)
same,GI50,[4],> 100 µM (inactive)
same,GI50,[5],> 100 µM (inactive)
same,GI50,[6],> 100 µM
same,GI50,[7],> 100 µM (inactive)
same,GI50,[8],> 100 µM (inactive)
same,GI50,[9],> 100 µM (inactive)
same,GI50,[10],> 100 µM (inactive)
same,GI50,[11],> 100 µM (inactive)
same,GI50,[12],> 100 µM (inactive)
same,GI50,[13],> 100 µM (inactive)
same,GI50,[14],> 100 µM (inactive)
same,GI50,[15],> 100 µM (inactive)
same,GI50,[16],> 100 µM (inactive)
same,GI50,[17],> 100 µM (inactive)
same,GI50,[18],> 100 µM (inactive)
same,GI50,[19],> 100 µM (inactive)
same,GI50,[20],> 100 µM (inactive)
same,GI50,[21],> 100 µM (inactive)
same,GI50,[22],> 100 µM (inactive)
same,GI50,[23],> 100 µM (inactive)
same,GI50,[24],> 100 µM (inactive)
same,GI50,[25],> 100 µM (inactive)
same,GI50,[26],> 100 µM (inactive)
same,GI50,[27],> 100 µM (inactive)
same,GI50,[28],> 100 µM (inactive) and > 72.8 µM (inactive)
same,GI50,[29],> 100 µM (inactive)
same,GI50,[30],> 100 µM (inactive)
same,GI50,[31],> 100 µM (inactive) and 54.8 µM (inactive)
same,GI50,[32],> 100 µM (inactive)
same,GI50,[33],> 100 µM (inactive)
same,GI50,[34],> 100 µM (inactive)
same,GI50,[35],> 100 µM (inactive)
same,GI50,[36],> 100 µM (inactive)
same,GI50,[37],> 100 µM (inactive)
same,GI50,[38],> 100 µM (inactive)
same,GI50,[39],> 100 µM (inactive)
same,GI50,[40],> 100 µM (inactive)
same,GI50,[41],> 100 µM (inactive)
same,GI50,[42],> 100 µM (inactive)
same,GI50,[43],> 100 µM (inactive)
same,GI50,[44],> 100 µM (inactive)
same,GI50,[45],> 100 µM (inactive)
same,GI50,[46],> 100 µM (inactive)
same,GI50,[47],> 100 µM (inactive) and > 95.7 µM (inactive)
same,GI50,[48],> 100 µM (inactive)
same,GI50,[49],> 100 µM (inactive)
same,GI50,[51],> 100 µM (inactive)
same,GI50,[52],> 100 µM (inactive)
same,GI50,[53],> 100 µM (inactive)
same,GI50,[54],> 100 µM (inactive)
same,GI50,[55],> 100 µM (inactive)
same,GI50,[56],> 100 µM (inactive)
same,GI50,[57],> 100 µM (inactive)
same,GI50,[58],> 100 µM (inactive)
same,GI50,[59],> 100 µM (inactive) and > 77.4 µM (inactive)
